Experimental data taken from US20240100193A1, “Self-complementary AAV vectors carrying dominant negative RhoA and methods of use to treat ocular diseases” (iView Therapeutics, Inc., priority 2022, published 2024).

System: ROCK
Test: ROCK Activity Assay Kit on HTM cell lysates treated with ROCK activator or inhibitor
Type: biochemical, human
Details: for relative ROCK activity normalized to the no drug treated cell lysate: HTM cell lysate
Protocol: The ROCK Activity Assay Kit is an enzyme immunoassay developed for detection of the specific phosphorylation of MYPT1 at Thr696 by ROCK. A strip-well microtiter plate is precoated with a recombinant MYPT1. After incubating the substrate wells with ROCK samples, the phosphorylated MYPT1 is detected by an anti-phospho-MYPT1 (Thr696) antibody.
Human trabecular meshwork cells were seeded into 12-well plates at the density of 500,000 cells per well. 48 hours after seeding, cells were harvested with cell lysis buffer. Cell lysates were treated with ROCK activator or ROCK inhibitor before incubating with precoated strip-wells. The ROCK activity was then measured with the protocol of the kit. Three chemicals were used to activate ROCK: S1P (Sphingosine-1 phosphate at 1 μM), LPA (Oleoyl L-lysophosphatidic acid at 10 μM) and DMOG (Dimethyloxalylglycine at 0.5 mM). […] Data was presented as relative ROCK activity normalized to the no drug treated cell lysate.

Q: Which “relative ROCK activity normalized to the no drug treated cell lysate” value (DMOG at 0.5 mM) does the source give for `COC(=O)CNC(=O)C(=O)OC` [DMOG, Dimethyloxalylglycine] here?
A: Its value is “increased”.

Q: `CCCCCCCCCCCCC/C=C/[C@@H](O)[C@@H](N)COP(=O)(O)O` [S1P, Sphingosine-1 phosphate] was tested. Which “relative ROCK activity normalized to the no drug treated cell lysate” value (S1P at 1 μM) did it give?
A: The value was “increased”.

Q: With `C[C@@H](N)[C@H]1CC[C@H](C(=O)Nc2ccncc2)CC1` [Y-27632] as the compound, how does the “relative ROCK activity normalized to the no drug treated cell lysate” value (Y-27632 at 50 μM) read?
A: The value was “decreased”.

Q: Oleoyl L-lysophosphatidic acid [LPA] was tested. Which “rank among the chemical ROCK activators” value (LPA 10 μM compared with S1P 1 μM and DMOG 0.5 mM) did it give?
A: Its value is “most potent activator”.

Q: What about the “relative ROCK activity normalized to the no drug treated cell lysate” value (LPA at 10 μM) of the same compound?
A: Its value is “increased”.
